The numbers were not newly measured in patent publication US20060134216A1, “Enteric film coating composition containing enteric polymer micronized with detackifier” (priority 2004, published 2006), which cites them from elsewhere.

The conditions of this data set: aqueous solution at pH values under 4.0.

For `COc1ccc2[nH]c([S+]([O-])Cc3ncc(C)c(OC)c3C)nc2c1` (stereo not shown) [omeprazole], the half-life result is on record as “less than ten”.
